Positions of bridges follow the written chain, without caps; N, C: chain ends. Residues, ends and D or L forms follow the SMILES beside them. No end group written: not given here.

Experimental findings from patent US9265845B2, “Imaging methods using engineered integrin binding peptides” (The Board of Trustees of the Leland Stanford Junior …, priority 2006, dated 2016) are described below.

In one assay the test system is U87MG glioblastoma cells. As to the kind of experiment: Direct equilibrium binding titration on U87MG glioblastoma cells. The conditions noted are these: for Kd: recombinant peptides with FLAG and His tags, 3 h at 4° C. Here is the method:
Direct equilibrium binding titrations of the recombinant engineered AgRP peptides were performed on U87MG glioblastoma cells. Peptides were incubated with cells for 3 h at 4° C., followed by staining with a fluorescein-conjugated anti-His antibody and analysis by flow cytometry. Equilibrium binding constant (KD) values were obtained by fitting plots of concentration versus mean fluorescence intensity to a sigmoidal curve using KaleidaGraph software.
(§1) All cell lines were cultured at 37° C. with 5% CO2. Adherent U87MG cells were obtained from ATCC and cultured in DMEM media (Gibco 11995) supplemented with 10% fetal bovine serum. Untransfected K562 cells (α5 β1-positive) were obtained from ATCC and cultured in suspension in IMDM media (Gibco 12440) supplemented with 10% fetal bovine serum. K562 cells stably transfected with αv β3, αv β5, or αiib β3 integrins were obtained from S. Blystone (Blystone, S. D., Graham, I. L., Lindberg, F. P. & Brown, E. J. (1994). Integrin avb3 differentially regulates adhesive and phagocytic functions of the fibronectin receptor a5b1. J. Cell Biol. 127, 1129-1137) and were grown in media supplemented with 10 μg/mL geneticin. Equilibrium binding assays were performed with 10^5 cells per reaction. Cells were suspended in IBB with varying amounts of engineered AgRP peptide at 4° C. for 3 h with gentle rocking. The cells were washed and resuspended in BPBS with a 1:40 dilution of fluorescein-conjugated anti-6×-His antibody (Bethyl A190-113F) and incubated on ice for 20 min. After washing, the cells were analyzed by flow cytometry using a BD FACSCalibur instrument and CellQuest software (Becton Dickinson, Franklin Lakes, N.J.). Mean fluorescence intensity values for each cell population was plotted against concentration on a log scale. Data was fit to sigmoidal curves to obtain equilibrium dissociation constants using KaleidaGraph (Synergy Software), and is presented as average values with standard deviations. Each assay was performed a minimum of three times.

The next assay has as its system K562-αvβ3 cells. As to the kind of experiment: Equilibrium binding to K562 cells expressing αvβ3 integrin. The conditions noted are these: recombinant peptides with FLAG and His tags. As to the method: To determine the binding specificities of the AgRP peptides for αvβ3 integrin versus the αvβ5 and α5β1 integrins also expressed on U87MG cells, K562 leukemia cells that had been stably transfected with individual α and β integrin subunits were used. The engineered AgRP peptides were tested for binding to untransfected K562 cells, which intrinsically express α5β1 integrin. Equilibrium binding assays were performed on the untransfected K562 cells as described above for the U87MG cells. Three peptide concentrations were tested. Negligible signal over background levels (cells stained with fluorescein-conjugated anti-His antibody alone) even at 500 nM, the highest concentration tested, was observed.
The engineered AgRP peptides were tested for binding to K562 cells expressing αvβ5 αiiiβ3 or αvβ3 integrins. The peptides were tested at three concentrations with very little signal over background for cells expressing αvβ5 integrin, even at 500 nM, the highest concentration. The peptides bound weakly to the K562 cells expressing αiiβ3 integrins and, as expected, strongly to the K562 cells expressing αvβ3 integrins. In order to determine KD values for the engineered AgRP peptides against K562-αiiβ3 and K562-αvβ3 cells, binding titrations were done over a larger range of concentrations. […] KD values for peptide binding to K562-αiibβ3 cells could not be determined because binding was still increasing at the highest concentration (5 μM) of peptides tested.
as §1, with “Data was fit to sigmoidal curves to obtain equilibrium dissociation constants using KaleidaGraph (Synergy Software), and is presented as average values with standard deviations. Each assay was performed a minimum of three times.” left out

A further assay addresses α5β1 integrin (Homo sapiens, UniProt P05556+P08648). Description: Competition of 125I-echistatin to detergent-solubilized plate-coated integrin. The class given is binding. The conditions noted are these: 0.06 nM 125I echistatin, 5 nM and 50 nM peptide. Here is the method:
(§2) FIG. 10A through FIG. 10D is a series of histograms showing binding specificities to integrins αvβ3, αvβ5, α5β1, and αiibβ3 for engineered EETI-RGD peptides compared to controls. Error bars represent experiments performed in triplicate. Competition binding of 0.06 nM ^125I echistatin with 5 nM (black bars) and 50 nM (grey bars) unlabeled peptide to plate-coated integrins was measured. […] The engineered peptides have very little binding to αiibβ3 integrin.
(§3) This was done by competition of ^125I-echistatin to detergent-solubilized integrin receptors coated onto microtiter plates (see FIG. 10). […] This is consistent with previous studies which have shown αv integrin receptors can accommodate a wide range of RGD-containing cyclic structures. […] However, since α5β1 integrins are expressed on many tumors and are all involved in mediating angiogenesis and metastasis, a broad spectrum agent that targets all three integrins will be useful for diagnostic and therapeutic applications. With the exception of echistatin, all of the RGD-containing peptides bound weakly to the αiibβ3 receptor, showing the specificity of the present peptides for the αv and α5-containing integrin heterodimers. This characteristic is valuable for molecular imaging and therapeutic applications, since binding to αiibβ3 on platelet cells prevents blood clotting and would lead to non-specific in vivo effects.

For another assay, the target named is αiibβ3 integrin (Homo sapiens, UniProt P05106+P08514). The assay is described as above. The conditions noted are these: 0.06 nM 125I echistatin, 5 nM and 50 nM peptide. Format: binding. Here is the method: as §2, §3
The target of a further assay is αvβ3 integrin (Homo sapiens, UniProt P05106+P06756). The description is as above. The class given is binding. Particulars: 0.06 nM 125I echistatin, 5 nM and 50 nM peptide. Here is the method: as §2, §3
Chain of αvβ3 integrin (P06756 31-889 limits assumed): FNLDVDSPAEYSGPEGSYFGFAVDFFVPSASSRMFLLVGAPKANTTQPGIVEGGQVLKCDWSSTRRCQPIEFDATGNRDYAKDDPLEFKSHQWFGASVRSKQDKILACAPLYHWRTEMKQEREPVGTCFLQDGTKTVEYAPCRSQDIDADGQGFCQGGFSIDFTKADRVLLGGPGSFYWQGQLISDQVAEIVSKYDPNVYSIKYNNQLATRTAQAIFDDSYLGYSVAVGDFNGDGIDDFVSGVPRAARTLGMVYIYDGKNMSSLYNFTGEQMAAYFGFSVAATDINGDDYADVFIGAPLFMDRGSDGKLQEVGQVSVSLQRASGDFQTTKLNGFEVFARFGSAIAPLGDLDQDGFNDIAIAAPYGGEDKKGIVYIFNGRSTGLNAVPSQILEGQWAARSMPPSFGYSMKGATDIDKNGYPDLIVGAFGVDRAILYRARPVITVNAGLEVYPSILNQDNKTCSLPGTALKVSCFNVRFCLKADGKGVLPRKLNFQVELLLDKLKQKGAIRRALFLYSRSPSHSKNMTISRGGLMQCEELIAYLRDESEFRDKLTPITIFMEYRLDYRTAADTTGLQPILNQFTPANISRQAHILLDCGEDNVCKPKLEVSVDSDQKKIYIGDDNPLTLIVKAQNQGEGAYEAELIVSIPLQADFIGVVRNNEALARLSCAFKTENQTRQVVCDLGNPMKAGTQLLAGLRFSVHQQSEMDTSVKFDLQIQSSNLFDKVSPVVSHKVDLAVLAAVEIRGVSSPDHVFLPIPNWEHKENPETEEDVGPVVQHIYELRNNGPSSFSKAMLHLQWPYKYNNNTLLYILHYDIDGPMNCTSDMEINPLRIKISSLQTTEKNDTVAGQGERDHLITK
Chain of αvβ3 integrin (P06756 891-1048 partner limits assumed): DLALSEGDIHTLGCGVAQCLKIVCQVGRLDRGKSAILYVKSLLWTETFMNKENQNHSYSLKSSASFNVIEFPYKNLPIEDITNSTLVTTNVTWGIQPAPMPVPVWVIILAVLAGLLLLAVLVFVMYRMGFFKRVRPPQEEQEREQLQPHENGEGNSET
Chain of αvβ3 integrin (P05106 27-788): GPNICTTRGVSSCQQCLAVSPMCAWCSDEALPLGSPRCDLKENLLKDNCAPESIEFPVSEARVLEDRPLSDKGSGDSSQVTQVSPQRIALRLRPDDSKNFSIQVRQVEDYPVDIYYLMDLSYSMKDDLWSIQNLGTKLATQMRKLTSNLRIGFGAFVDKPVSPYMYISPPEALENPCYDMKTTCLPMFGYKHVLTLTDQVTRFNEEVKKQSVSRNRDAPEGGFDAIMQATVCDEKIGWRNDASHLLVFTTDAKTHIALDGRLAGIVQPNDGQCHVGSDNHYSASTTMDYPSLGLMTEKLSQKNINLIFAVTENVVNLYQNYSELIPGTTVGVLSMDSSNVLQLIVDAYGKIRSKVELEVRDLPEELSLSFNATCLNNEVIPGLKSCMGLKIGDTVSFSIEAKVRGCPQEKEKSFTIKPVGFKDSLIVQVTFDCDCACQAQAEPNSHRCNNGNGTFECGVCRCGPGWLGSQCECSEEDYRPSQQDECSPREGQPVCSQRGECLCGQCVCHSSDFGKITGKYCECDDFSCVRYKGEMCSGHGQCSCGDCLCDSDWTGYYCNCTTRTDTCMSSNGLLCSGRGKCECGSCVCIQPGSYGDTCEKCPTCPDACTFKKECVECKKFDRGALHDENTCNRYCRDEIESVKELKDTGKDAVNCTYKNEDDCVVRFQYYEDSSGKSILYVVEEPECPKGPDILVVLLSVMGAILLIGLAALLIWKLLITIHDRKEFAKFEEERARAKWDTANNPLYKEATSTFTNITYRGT
For another assay, the target named is αvβ5 integrin (Homo sapiens, UniProt P06756+P18084). The description is as above. The conditions noted are these: 0.06 nM 125I echistatin, 5 nM and 50 nM peptide. The class given is binding. Here is the method:
as §2, §3

Chain of α5β1 integrin (P08648 42-894 limits assumed): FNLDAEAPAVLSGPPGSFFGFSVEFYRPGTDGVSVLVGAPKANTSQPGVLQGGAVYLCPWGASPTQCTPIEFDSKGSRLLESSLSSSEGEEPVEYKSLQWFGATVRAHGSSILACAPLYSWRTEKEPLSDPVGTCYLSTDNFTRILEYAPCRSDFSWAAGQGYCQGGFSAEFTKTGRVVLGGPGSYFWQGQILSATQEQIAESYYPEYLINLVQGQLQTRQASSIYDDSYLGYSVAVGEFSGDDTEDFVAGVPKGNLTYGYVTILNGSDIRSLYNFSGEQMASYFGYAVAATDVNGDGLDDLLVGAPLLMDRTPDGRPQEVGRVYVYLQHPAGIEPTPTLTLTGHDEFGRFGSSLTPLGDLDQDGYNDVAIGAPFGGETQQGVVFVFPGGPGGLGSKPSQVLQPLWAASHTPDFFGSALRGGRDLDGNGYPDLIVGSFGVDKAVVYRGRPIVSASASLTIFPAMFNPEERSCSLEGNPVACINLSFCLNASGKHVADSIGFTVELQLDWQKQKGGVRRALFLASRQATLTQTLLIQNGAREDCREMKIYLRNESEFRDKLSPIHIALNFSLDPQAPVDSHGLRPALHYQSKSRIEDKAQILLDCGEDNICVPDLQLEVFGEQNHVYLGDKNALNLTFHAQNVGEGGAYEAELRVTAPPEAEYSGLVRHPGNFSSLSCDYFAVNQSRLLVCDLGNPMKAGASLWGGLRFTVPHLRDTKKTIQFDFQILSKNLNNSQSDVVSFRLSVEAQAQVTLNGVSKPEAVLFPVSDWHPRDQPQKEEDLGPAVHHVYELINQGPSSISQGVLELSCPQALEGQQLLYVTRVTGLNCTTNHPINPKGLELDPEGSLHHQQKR
Chain of α5β1 integrin (P08648 895-1049 partner limits assumed): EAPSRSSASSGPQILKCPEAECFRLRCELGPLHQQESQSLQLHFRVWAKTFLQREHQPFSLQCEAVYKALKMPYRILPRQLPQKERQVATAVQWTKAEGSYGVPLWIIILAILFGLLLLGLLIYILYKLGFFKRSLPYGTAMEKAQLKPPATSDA
Chain of α5β1 integrin (P05556 21-798): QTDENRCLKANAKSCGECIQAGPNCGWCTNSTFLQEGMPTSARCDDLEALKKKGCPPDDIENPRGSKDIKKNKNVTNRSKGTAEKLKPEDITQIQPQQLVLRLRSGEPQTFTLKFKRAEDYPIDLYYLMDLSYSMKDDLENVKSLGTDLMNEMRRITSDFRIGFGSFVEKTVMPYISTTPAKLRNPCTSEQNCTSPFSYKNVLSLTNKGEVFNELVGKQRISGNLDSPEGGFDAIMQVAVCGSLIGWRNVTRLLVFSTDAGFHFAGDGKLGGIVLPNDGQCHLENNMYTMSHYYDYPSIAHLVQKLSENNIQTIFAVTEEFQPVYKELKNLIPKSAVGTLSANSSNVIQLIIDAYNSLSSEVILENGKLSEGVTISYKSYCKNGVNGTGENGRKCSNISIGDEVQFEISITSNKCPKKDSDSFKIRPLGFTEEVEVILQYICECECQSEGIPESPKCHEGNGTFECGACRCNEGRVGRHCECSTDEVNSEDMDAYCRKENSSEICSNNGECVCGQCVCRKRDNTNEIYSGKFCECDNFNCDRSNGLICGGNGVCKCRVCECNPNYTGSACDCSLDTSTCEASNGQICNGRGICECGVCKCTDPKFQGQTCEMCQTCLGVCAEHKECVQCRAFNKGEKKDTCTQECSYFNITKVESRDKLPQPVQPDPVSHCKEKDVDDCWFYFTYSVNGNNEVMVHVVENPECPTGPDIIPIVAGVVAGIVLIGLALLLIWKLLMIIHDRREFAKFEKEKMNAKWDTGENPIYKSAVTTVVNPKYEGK
Chain of αvβ5 integrin (P06756 31-889 limits assumed): as the sequence (P06756 31-889 limits assumed) above
Chain of αvβ5 integrin (P06756 891-1048 partner limits assumed): as the sequence (P06756 891-1048 partner limits assumed) above
Chain of αvβ5 integrin (P18084 24-799): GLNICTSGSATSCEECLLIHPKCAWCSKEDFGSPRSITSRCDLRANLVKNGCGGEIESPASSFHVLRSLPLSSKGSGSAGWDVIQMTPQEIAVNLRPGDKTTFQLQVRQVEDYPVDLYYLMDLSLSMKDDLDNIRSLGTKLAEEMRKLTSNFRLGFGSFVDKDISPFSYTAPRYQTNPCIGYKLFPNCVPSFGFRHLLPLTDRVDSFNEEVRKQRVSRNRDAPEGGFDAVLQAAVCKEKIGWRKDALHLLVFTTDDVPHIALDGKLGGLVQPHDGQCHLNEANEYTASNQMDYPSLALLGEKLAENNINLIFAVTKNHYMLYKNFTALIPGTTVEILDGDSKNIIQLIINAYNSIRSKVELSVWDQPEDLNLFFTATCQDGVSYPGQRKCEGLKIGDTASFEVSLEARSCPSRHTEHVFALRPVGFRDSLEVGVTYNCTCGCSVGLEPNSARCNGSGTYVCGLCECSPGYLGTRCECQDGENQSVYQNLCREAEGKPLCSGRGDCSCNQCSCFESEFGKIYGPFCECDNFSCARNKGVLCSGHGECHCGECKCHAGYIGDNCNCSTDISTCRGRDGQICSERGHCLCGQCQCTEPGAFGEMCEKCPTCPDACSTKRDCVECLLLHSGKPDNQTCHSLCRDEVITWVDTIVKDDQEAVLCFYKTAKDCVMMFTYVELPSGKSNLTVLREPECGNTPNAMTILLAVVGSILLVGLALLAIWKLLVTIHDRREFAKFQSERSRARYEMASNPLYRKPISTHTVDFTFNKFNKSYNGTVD

With `CSCC[C@@H]1NC(=O)[C@H](CC(=O)O)NC(=O)[C@H](CCCNC(=N)N)NC(=O)[C@H](CC(=O)O)NC(=O)CNC(=O)[C@H](CCCNC(=N)N)NC(=O)CNC(=O)[C@H](CCC(=O)O)NC(=O)[C@@H]2CSSC[C@H](NC(=O)[C@H](CCCCN)NC1=O)C(=O)N[C@@H](Cc1ccc(O)cc1)C(=O)N[C@H](C(=O)N[C@@H](CCCNC(=N)N)C(=O)O)CSSC[C@@H]1NC(=O)[C@@H]3CCCN3C(=O)[C@H](C(C)C)NC(=O)[C@H](CCC(N)=O)NC(=O)[C@H](CCC(N)=O)NC(=O)CNC(=O)[C@H](CC(C)C)NC(=O)[C@@H]3CSSC[C@H](NC(=O)[C@H]([C@@H](C)O)NC(=O)[C@H](C)NC(=O)[C@H](C)NC(=O)[C@@H]4CCCN4C(=O)[C@H](CC(=O)O)NC(=O)[C@H](CSSC[C@H](NC(=O)CN)C(=O)N[C@@H](C(C)C)C(=O)N[C@@H](CCCNC(=N)N)C(=O)N[C@@H](CC(C)C)C(=O)N[C@@H](Cc4c[nH]cn4)C(=O)N[C@@H](CCC(=O)O)C(=O)N[C@@H](CO)C(=O)N3)NC1=O)C(=O)N[C@@H](Cc1ccc(O)cc1)C(=O)N2` [7J] (H-GCVRLHESCLGQQVPCCDPAATCYCEGRGDRDMKCYCR-OH; disulfide 2-17, 9-23, 16-37, 25-35; N-terminus and C-terminus assumed), the dissociation constant Kd was determined as 8.3 ± 1.8 nM in the assay on U87MG glioblastoma cells and 16 ± 8 nM in the assay with K562-αvβ3 cells.

As to `CC(C)C[C@@H]1NC(=O)[C@@H]2CSSC[C@@H]3NC(=O)[C@H]([C@@H](C)O)NC(=O)[C@H](C)NC(=O)[C@H](C)NC(=O)[C@@H]4CCCN4C(=O)[C@H](CC(=O)O)NC(=O)[C@H](CSSC[C@H](NC(=O)CN)C(=O)N[C@@H](C(C)C)C(=O)N[C@@H](CCCNC(=N)N)C(=O)N[C@@H](CC(C)C)C(=O)N[C@@H](Cc4c[nH]cn4)C(=O)N[C@@H](CCC(=O)O)C(=O)N[C@@H](CO)C(=O)N2)NC(=O)[C@H](CSSC[C@@H](C(=O)N[C@@H](CCCNC(=N)N)C(=O)O)NC(=O)[C@H](Cc2ccc(O)cc2)NC(=O)[C@@H]2CSSC[C@H](NC(=O)[C@H](Cc4ccc(O)cc4)NC3=O)C(=O)N[C@@H](CO)C(=O)NCC(=O)N[C@@H](CCCNC(=N)N)C(=O)NCC(=O)N[C@@H](CC(=O)O)C(=O)N[C@@H](CC(N)=O)C(=O)N[C@@H](CC(=O)O)C(=O)N[C@@H](CC(C)C)C(=O)N[C@@H](C(C)C)C(=O)N2)NC(=O)[C@@H]2CCCN2C(=O)[C@H](C(C)C)NC(=O)[C@H](CCC(N)=O)NC(=O)[C@H](CCC(N)=O)NC(=O)CNC1=O` [7A] (H-GCVRLHESCLGQQVPCCDPAATCYCSGRGDNDLVCYCR-OH; disulfide 2-17, 9-23, 16-37, 25-35; N-terminus and C-terminus assumed), the “fold improvement in affinity over the worst binder, 6C” value with U87MG glioblastoma cells was found to be 17 fold. For the same compound, the Kd in the assay with U87MG glioblastoma cells stood at 0.78 ± 0.37 nM; with K562-αvβ3 cells, 0.89 ± 0.36 nM.

Take “DOTA-conjugated FN-RDG2: DOTA conjugate of negative control with RGD switched to RDG (GCVTGRDGSPASSCSQDSDCLAGCVCGPNGFCG; cysteine pairing not given here; also: DOTA conjugate, position not given here)”: the “binding to α5β1 integrin, in words” value in the assay with α5β1 integrin is reported as “did not bind”. The “binding to αiibβ3 integrin, in words” value with αiibβ3 integrin is “did not bind”. In the assay with αvβ3 integrin, the “binding to αvβ3 integrin, in words” value was “did not bind”. Further, the “binding to αvβ5 integrin, in words” value with αvβ5 integrin is “did not bind”.

Consider `CC(C)C[C@@H]1NC(=O)[C@@H]2CSSC[C@@H]3NC(=O)[C@H]([C@@H](C)O)NC(=O)[C@H](C)NC(=O)[C@H](C)NC(=O)[C@@H]4CCCN4C(=O)[C@H](CC(=O)O)NC(=O)[C@H](CSSC[C@H](NC(=O)CN)C(=O)N[C@@H](C(C)C)C(=O)N[C@@H](CCCNC(=N)N)C(=O)N[C@@H](CC(C)C)C(=O)N[C@@H](Cc4c[nH]cn4)C(=O)N[C@@H](CCC(=O)O)C(=O)N[C@@H](CO)C(=O)N2)NC(=O)[C@H](CSSC[C@@H](C(=O)N[C@@H](CCCNC(=N)N)C(=O)O)NC(=O)[C@H](Cc2ccc(O)cc2)NC(=O)[C@@H]2CSSC[C@H](NC(=O)[C@H](Cc4ccc(O)cc4)NC3=O)C(=O)N[C@@H]([C@@H](C)O)C(=O)NCC(=O)N[C@@H](CCCNC(=N)N)C(=O)NCC(=O)N[C@@H](CC(=O)O)C(=O)N[C@@H](CCC(=O)O)C(=O)N[C@@H](CCCCN)C(=O)N[C@@H](CC(C)C)C(=O)N[C@@H](CCCNC(=N)N)C(=O)N2)NC(=O)[C@@H]2CCCN2C(=O)[C@H](C(C)C)NC(=O)[C@H](CCC(N)=O)NC(=O)[C@H](CCC(N)=O)NC(=O)CNC1=O` [6C] (H-GCVRLHESCLGQQVPCCDPAATCYCTGRGDEKLRCYCR-OH; disulfide 2-17, 9-23, 16-37, 25-35; N-terminus and C-terminus assumed), for which the Kd with U87MG glioblastoma cells turned out to be 13 ± 2 nM; with K562-αvβ3 cells it was 15 ± 4 nM.

Regarding `CC(C)C[C@@H]1NC(=O)[C@@H]2CSSC[C@@H]3NC(=O)[C@H]([C@@H](C)O)NC(=O)[C@H](C)NC(=O)[C@H](C)NC(=O)[C@@H]4CCCN4C(=O)[C@H](CC(=O)O)NC(=O)[C@H](CSSC[C@H](NC(=O)CN)C(=O)N[C@@H](C(C)C)C(=O)N[C@@H](CCCNC(=N)N)C(=O)N[C@@H](CC(C)C)C(=O)N[C@@H](Cc4c[nH]cn4)C(=O)N[C@@H](CCC(=O)O)C(=O)N[C@@H](CO)C(=O)N2)NC(=O)[C@H](CSSC[C@@H](C(=O)N[C@@H](CCCNC(=N)N)C(=O)O)NC(=O)[C@H](Cc2ccc(O)cc2)NC(=O)[C@@H]2CSSC[C@H](NC(=O)[C@H](Cc4ccc(O)cc4)NC3=O)C(=O)N[C@@H](C(C)C)C(=O)NCC(=O)N[C@@H](CCCNC(=N)N)C(=O)NCC(=O)N[C@@H](CC(=O)O)C(=O)N[C@@H](CC(=O)O)C(=O)N[C@@H](CC(N)=O)C(=O)N[C@@H](CC(C)C)C(=O)N[C@@H](CCCCN)C(=O)N2)NC(=O)[C@@H]2CCCN2C(=O)[C@H](C(C)C)NC(=O)[C@H](CCC(N)=O)NC(=O)[C@H](CCC(N)=O)NC(=O)CNC1=O` [7E] (H-GCVRLHESCLGQQVPCCDPAATCYCVGRGDDNLKCYCR-OH; disulfide 2-17, 9-23, 16-37, 25-35; N-terminus and C-terminus assumed), the Kd turned out to be 1.4 ± 0.5 nM with U87MG glioblastoma cells and 1.6 ± 1.1 nM in the assay on K562-αvβ3 cells.

For orientation: Kd means the equilibrium constant for the complex coming apart.
